One experiment has as its system PI3K-PDK1-Akt signaling. Put plainly: PI3K-PDK1-Akt signaling in growth factor-stimulated SUM159 cells. It is filed as cell-based, human.
For experiment [1], the target named is T1, R86A mutant of the Akt PH domain (Homo sapiens, UniProt P31749, R86A).
T1 construct: Human Akt PH domain a.a; 1-123; His6 (N); made in house; host or cells: E. coli BL21(DE3)
Kind of experiment: NMR HSQC, R86A mutant of the PH domain. It is filed as binding.

Experiment [2] has as its system differentiated HL-60 cells. Kind of experiment: fMLP-stimulated HL-60 cell polarization. As to conditions: 100 μM, 2 hr. It is filed as cell-based. On the procedure: In another set of experiments, the ability of PITs to inhibit fMLP-stimulated HL-60 cell polarization was examined. Differentiated HL-60 cells were treated with PIT-1, PIT-2, PIT-1i-1, or PIT-1i-2, each at 100 μM for 2 hr, followed by stimulation with 100 nM fMLP for 3 min. Actin was stained and analyzed using fluorescent microscopy. The number of the polarized cells was counted in five random fields.

A further experiment has as its target eIF-1 (Homo sapiens, UniProt P41567). Put plainly: NMR HSQC specificity control, eIF-1. It is filed as binding.
For a further experiment, the target named is T2, PLC-δ PH domain (Homo sapiens, UniProt P51178).
T2 construct: 100 nM PLC-δ PH domain
T2 sequence (P51178 21-130 limits assumed): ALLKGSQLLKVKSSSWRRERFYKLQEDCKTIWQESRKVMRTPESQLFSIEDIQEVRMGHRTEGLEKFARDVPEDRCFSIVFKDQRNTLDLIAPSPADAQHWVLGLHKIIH
Kind of experiment: PH domain translocation assay, GFP-fused PLC-δ PH domain. It is filed as cell-based. On the procedure: Cells were transfected with the corresponding GFP-fusion vectors, serum starved overnight, and incubated with 100 μM PITs or PIT-1is for 2 hr, followed by stimulation with 100 ng/ml PDGF or 250 ng/ml PMA for 5 min. The translocation was analyzed using fluorescent microscope and was quantitated by counting the number of cells with translocated PH domains in five random fields.
In contrast, no inhibitory effect was observed on the cellular localization of PLC-δ PH domain, which is specific for PIP2.

The target in a further experiment is T3, PH123 (Akt PH domain) (Homo sapiens, UniProt P31749).
T3 construct: recombinant 1-123 amino acid N-terminal fragment of human Akt1; made in house; host or cells: E. coli BL21(DE3)
T3 sequence (P31749 1-123): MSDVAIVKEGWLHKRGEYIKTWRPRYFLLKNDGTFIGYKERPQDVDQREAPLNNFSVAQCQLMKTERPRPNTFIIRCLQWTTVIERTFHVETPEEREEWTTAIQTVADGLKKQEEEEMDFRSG
Put plainly: lipid overlay assay of PIP3/PH123 binding.

A further experiment deals with U87MG cells. Kind of experiment: long-term colony formation by U87MG cells. Format: cell-based, human.
The next experiment relates to LC3-II. Kind of experiment: autophagic marker LC3-II in U87MG cells. Format: cell-based, human. An excerpt: Changes in cell metabolism have emerged in recent years as an important component of PI3K/PIP3/Akt signaling, contributing to the regulation of cell viability and transformation by the PI3K/Akt pathway. Datta S R et al. (1999) Genes Dev 13:2905-27; Elstrom R L et al. (2004) Cancer Res 64:3892-9. Therefore, the possibility that PIT-1 may cause dysregulation of energy homeostasis and induction of the metabolic stress in cancer cells, which may contribute to the PIT-induced cell death, was investigated. […] Hardie D G (2007) Nat Rev Mol Cell Biol 8:774-85. […] Mathew R et al. (2007) Nat Rev Cancer 7:961-7. […] Takeuchi H et al. (2005) Cancer Res 65:3336-46.

The next experiment has as its system SUM-159 cells. Kind of experiment: acquisition of the invasive phenotype by SUM-159 cells. Format: cell-based, human. As to conditions: reversible.
For experiment [3], the system named is U87MG cells (R130M PTEN vs wt PTEN). Put plainly: Sytox cell death assay, U87MG expressing wild-type or R130M inactive PTEN. The following applies: 25, 50, 100 μM, 48 hr. It is filed as cell-based, human. The procedure: After treatment with 25, 50, or 100 μM PIT-1 for 48 hr, cell death was analyzed using Sytox cell death assay.
Based on the critical role of PIP3-dependent Akt signaling in the regulation of cell survival, the effect of PIT-1 on the cancer cell viability was tested. Cancer cells were seeded into 96-well plates (white plates for ATP assay; black plates for fluorescent assay; clear plates for MTS assay) at the density of 5-10×10^3 cells per well in 100 μl of the appropriate media. Compounds were added at a series of concentrations and incubated for different times. For the ATP assay, a luminescence-based commercial kit (CellTiter-Glo, Promega, Madison, Wis.) was used. Thirty microliters of cell lysis/ATP detection reagent was added to each well, mixed for 10 min at room temperature, and the luminescence was measured using a Wallac Victor 3 plate reader (Perkin-Elmer, Wellesley, Mass.). […] Twenty microliters of the combined MTS/PMS solution was added into each well, incubated for 4 hr at 37° C., and the absorbance at 490 nm was measured using a Wallac Victor 3 plate reader. For the Sytox cell death assay, measuring loss of plasma membrane integrity, cells were incubated with 1 μM Sytox Green reagent (Molecular Probes, Eugene, Oreg.) for 30 min at 37° C. and the fluorescence intensity was measured using Wallac Victor 3 plate reader with excitation at 485 nm and emission at 545 nm. […]

The structures appear in SMILES notation.

T1 sequence (P31749 1-123 R86A): as the sequence (P31749 1-123) above, with R86A counted along it
Sequence of eIF-1 (P41567 whole entry, species assumed, the tested form may be a part): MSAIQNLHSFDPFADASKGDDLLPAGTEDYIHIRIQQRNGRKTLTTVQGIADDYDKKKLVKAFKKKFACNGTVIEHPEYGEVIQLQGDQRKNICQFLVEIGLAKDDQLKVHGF

In the case of `O=C(NC(=S)Nc1cc([N+](=O)[O-])cc(Cl)c1O)c1ccccc1` [PIT-1], the “PI3K-PDK1-Akt signaling in SUM159 cells” value with PI3K-PDK1-Akt signaling is reported as “significantly suppressed”. Moreover, the “effect on HSQC of R86A mutant PH domain” value in experiment [1] is listed as “had no effect”. In experiment [2], the “fMLP-stimulated polarization of differentiated HL-60 neutrophils” value is given as “efficient inhibition”. In addition, the “changes in HSQC spectrum of eIF-1” value at eIF-1 is given as “did not elicit any changes”. Besides, the “effect on PLC-δ PH domain localization / PIP2/PH domain binding in cells” value on PLC-δ PH domain is “does not disrupt”. Besides, the “effect on PIP3/PH123 binding, lipid overlay” value at PH123 (Akt PH domain) is “concentration-dependent inhibitory effect”. Besides, the “long-term colony formation by U87MG cells” value in the experiment on U87MG cells is on record as “suppressed long-term colony formation”. For the same compound, the “expression of autophagic marker LC3-II” value in the experiment on LC3-II was “prominently increased”. For the same compound, in the experiment on SUM-159 cells, the “acquisition of the invasive phenotype by SUM-159 cells” value was “blocked acquisition of the invasive phenotype”. Also, the “toxicity in U87MG cells lacking PTEN activity compared to wt PTEN-expressing cells” value in experiment [3] is on record as “more pronounced”.

The values above are taken from patent US20120136033A1, “Small Molecule Antagonists of Phosphatidylinositol-3,4,5-Triphosphate (PIP3) and Uses Thereof” (President and Fellows of Harvard College, priority 2009, published 2012).
